Reference: patent US12540139B2, “Imidazopiperazine inhibitors of transcription activating proteins” (Board of Regents, The University of Texas System, priority 2020, dated 2026)
One block for each compound: values may come before it.

Assays:
[1] = target: T1, GST-CBP (1081-1197) bromodomain (Homo sapiens, UniProt Q92793); assay: CBP AlphaScreen assay; type: binding; conditions: biotin-H4 (1-21) Ac-K5/8/12/16 peptide
T1 construct: The GST tagged bromodomains of CBP (1081-1197) and BRD4 (49-170) were obtained from BPS Bioscience; purchased BPS Bioscience
T1 sequence (Q92793 1081-1197): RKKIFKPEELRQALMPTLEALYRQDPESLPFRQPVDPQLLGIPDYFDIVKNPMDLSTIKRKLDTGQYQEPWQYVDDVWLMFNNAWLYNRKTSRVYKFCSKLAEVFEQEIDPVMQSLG
Description: (§1) Specific binding of the CBP or BRD4 bromodomain to the acetylated peptide derived from the H4 histone substrate (tetra acetylated H4 (1-21) Ac-K5/8/12/16) was measured in absence or presence of inhibitors. The GST tagged bromodomains of CBP (1081-1197) and BRD4 (49-170) were obtained from BPS Bioscience and binding to the biotinylated H4 (1-21) Ac-K5/8/12/16 (AnaSpec. 64989) was assessed via AlphaScreen technology (Perkin Elmer).
5 nM GST-CBP (1081-1197) and 20 nM biotin-H4 (1-21) Ac-K5/8/12/16 (AnaSpec. 64989) were incubated with varying concentrations of CBP inhibitors in 15 μL of buffer containing 50 mM HEPES 7.5, […], 1 mM TCEP, and 0.003% Tween-20. After 30 minutes incubation at room temperature, 15 μL of detection buffer (BPS Bio. 33006) containing 7 μg/mL of Glutathione AlphaLisa acceptor beads (Perkin Elmer AL109) and 14 μg/mL of Streptavidin donor beads (Perkin Elmer 676002) was then added to the previous mixture. The reaction was incubated for an additional 2 hours at room temperature, and the AlphaScreen signal was quantified using the Envision Multilabel plate reader. As negative control, GST-CBP (1081-1197) was incubated with the non-acetylated biotin-H4 (1-21) peptide (AnaSpec. 62555) and in presence of 0.25% of final DMSO concentration.
(§2) The binding of 2.5 nM of BRD4 (49-170) to 10 nM biotin-H4 (1-21) Ac-K5/8/12/16 (AnaSpec. 64989) was assessed following the same procedure described for the CBP assay. The standard dose response curves were fitted by Genedata Screener software using the variable-slope model: Signal=Signalnegative control+(SignalDMSO control−Signalnegative control)/(1+(IC50/Dose)^Hill slope).
(§3) Only Signal and Dose in the equation were treated as known values.

[2] = target: T2, BRD4 (49-170) bromodomain (Homo sapiens, UniProt O60885); assay: BRD4 AlphaScreen assay; type: binding; conditions: biotin-H4 (1-21) Ac-K5/8/12/16 peptide
T2 construct: The GST tagged bromodomains of CBP (1081-1197) and BRD4 (49-170) were obtained from BPS Bioscience; purchased BPS Bioscience
Description: as §1, §2, §3

[3] = tested on: DOHH2 cells; assay: DOHH2 proliferation assay (CellTiter-Glo, day 7); type: cell-based; conditions: Homo sapiens, DOHH-2, 168 h; viability by CellTiter-Glo on day 7
Description: On day 1, 1000 DOHH2 cells were seeded to a 384-well TC plate (PerkinElmer #6007680) in 40 μL RPMI 1640 media, followed by the addition of CBP inhibitors except for column 13 where 3.3 μM staurosporine was added as negative control. DMSO was 0.1% in all the wells. The cells were lysed in and counted for viability by 40 μL CellTiter-Glo (Promega #G9243) on day 7. The luminescent signal was quantified by Envision Multilabel plate reader and the standard dose response curves were fitted by Genedata Screener software using the variable-slope model: Signal=Signalnegative control+(SignalDMSO control−Signalnegative control)/(1+(IC50/Dose)^Hill slope).
as §3

[4] = Metabolic stability in mouse liver microsomes; type: in vitro ADME; conditions: pH 7.4; CD-1 mouse liver microsomes 0.5 mg/mL, NADPH, 45 minutes, 37° C.; read-out: Half-life in liver microsomes (t1/2), Mouse
Description: (§4) Microsomal stability. Microsomal stability assays were conducted on a Beckmann Biomek FXp laboratory automation system. The liver microsomal incubation mixture consisted of liver microsomes (0.5 mg microsomal protein/mL), the Compound (1 μM), MgCl2 (3 mM), and EDTA (1 mM) in potassium phosphate buffer (100 mM, pH 7.4). Midazolam and Ketanserin were used as the assay control substrates. The reaction was initiated with the addition of an NADPH regeneration solution (1.3 mM NADPH) and maintained at 37° C. with shaking. At five time points ranging from 0 to 45 min, aliquots (50 μL) were removed and quenched with acetonitrile (100 μL) containing an internal standard (imipramine). After vortex and centrifugation, samples were analyzed by LC-MS/MS. Calculation of the in vitro half-lives and clearance followed literature guidelines.

[5] = Metabolic stability in rat liver microsomes; type: in vitro ADME; conditions: pH 7.4; Sprague Dawley rat liver microsomes 0.5 mg/mL, NADPH, 45 minutes, 37° C.; read-out: Half-life in liver microsomes (t1/2), Rat
Description: as §4

[6] = Metabolic stability in human liver microsomes; type: in vitro ADME; conditions: pH 7.4; human liver microsomes 0.5 mg/mL, NADPH, 45 minutes, 37° C.; read-out: Half-life in liver microsomes (t1/2), Human
Description: as §4

[7] = Metabolic stability in monkey liver microsomes; type: in vitro ADME; conditions: pH 7.4, read-out: Liver microsomal clearance (t1/2), Monkey
Description: as §4

[8] = Metabolic stability in dog liver microsomes; type: in vitro ADME; conditions: pH 7.4, read-out: Liver microsomal clearance (t1/2), Dog
Description: as §4

[9] = In vivo pharmacokinetics after a single dose, mouse; conditions: female CD-1 mice, single dose 0.2 or 0.3 mg/kg IV; for Vd: read-out: Vss
Description: (§5) IV (intravenous) doses were formulated in 20% DMSO+60% PEG400+20% water. PO (per os) doses were formulated in 0.5% methylcellulose in water.
Mouse: Female mice (CD1 strain, purchased from Shanghai JH Laboratory Animal Co. LTD) weighing 20-30 g were used for studies. Food and water were available to all animals ad libitum. The test article was dosed via tail vein (IV doses) or oral gavage (PO doses), respectively. Blood samples were collected from all animals at predose and at 0.083, 0.25, 0.5, 1, 2, 4, 8, and 24 h postdose into tubes containing the anticoagulant K2EDTA (3 animals per time point with 3 time points collected per animal). Plasma was separated from the blood by centrifugation at 4° C. and stored at −70° C. until analysis. Test article concentrations in plasma were quantified using a liquid chromatography with tandem mass spectrometry (LC-MS/MS) method.

[10] = In vivo pharmacokinetics after a single dose, rat; conditions: male, plasma, Sprague-Dawley rat
Description: as §5
Rat: Male rats (SD strain, purchased from Shanghai JH Laboratory Animal Co. LTD) weighing 200-300 g were used for studies. Animals were fasted overnight and fed 4 h postdose. Water was available ad libitum for all animals. Test article was dosed via dorsal foot vein (IV doses) or oral gavage (PO doses). Blood samples were collected via tail vein from all animals at predose and at 0.083, 0.25, 0.5, 1, 2, 4, 8, and 24 h postdose into tubes containing the anticoagulant K2EDTA. Plasma was separated from the blood by centrifugation at 4° C. and stored at −70° C. until analysis. Test article concentrations in plasma were quantified using a liquid chromatography with tandem mass spectrometry (LC-MS/MS) method.

[11] = In vivo pharmacokinetics after a single dose, monkey; conditions: male, plasma, Cynomolgus monkey
Description: as §5
(§6) Monkey: Male Cynomolgus monkeys (purchased from Hainan Jingang Biotech. Co., Ltd) weighing 3-5 kg were used for studies. Animals were fasted overnight and fed 4 h postdose. Test article was administered to monkeys via the cephalic vein (IV doses) or nasal gavage (PO doses). Blood samples were collected via the saphenous vein or cephalic vein from all animals at predose and 0.083, 0.25, 0.5, 1, 2, 4, 8, and 24 h postdose into tubes containing the anticoagulant K2EDTA. Plasma was separated from the blood by centrifugation at 4° C. and stored at −70° C. until analysis. Test article concentrations in plasma were quantified using a liquid chromatography with tandem mass spectrometry (LC-MS/MS) method.

[12] = In vivo pharmacokinetics after a single dose, dog; conditions: male, plasma, Beagle dog
Description: as §5
as §6, with “Dog:” for “Monkey:”, “Beagle dogs” for “Cynomolgus monkeys”, “Beijing Marshall Biotechnology” for “Hainan Jingang Biotech.”, “7-10” for “3-5”, “dogs” for “monkeys”, “oral” for “nasal”

[13] = mouse, plasma, read-out: Clearance (converted)

IC50 [1]: 0.003 µM
IC50 [2]: 4.79 µM
half-life at 1 μM [4]: 69.8 h
half-life at 1 μM [5]: 3.22 h
half-life at 1 μM [6]: 3.97 h
half-life at 1 μM [7]: 0.383 h
half-life at 1 μM [8]: 1.05 h
clearance [9]: dramatic decrease
t1/2 [9]: increase
half-life ([9]; mouse, plasma): 4.47 h
clearance [9, 13]: 0.197 L/h/kg
Vd ([9]; mouse, plasma): 0.342 L/kg
clearance ([10]; 1 mg/kg IV): 0.535 L/h/kg
half-life ([10]; 1 mg/kg IV): 2.99 h
Vd ([10]; 1 mg/kg IV, read-out: Vss): 0.908 L/kg
AUC(0-t) ([10]; 3 mg/kg PO): 2630 nM·h
Cmax ([10]; 3 mg/kg PO): 1.35 µM
bioavailability ([10]; 3 mg/kg PO): 25.2%
clearance ([11]; 1 mg/kg IV): 0.74 L/h/kg
half-life ([11]; 1 mg/kg IV): 1.65 h
Vd ([11]; 1 mg/kg IV, read-out: Vss): 1.06 L/kg
AUC(0-t) ([11]; 3 mg/kg PO): 2490 nM·h
Cmax ([11]; 3 mg/kg PO): 0.773 µM
bioavailability ([11]; 3 mg/kg PO): 28.2%
clearance ([12]; 1 mg/kg IV): 0.403 L/h/kg
half-life ([12]; 1 mg/kg IV): 3.42 h
Vd ([12]; 1 mg/kg IV, read-out: Vss): 1.57 L/kg
AUC(0-t) ([12]; 3 mg/kg PO): 10800 nM·h
Cmax ([12]; 3 mg/kg PO): 1.87 µM
bioavailability ([12]; 3 mg/kg PO): 78.9%
Structure (SMILES): CNC(=O)N1CCn2c(C3CCOCC3)nc(-c3cccc4nc(-c5cnc(C)s5)c(C(F)F)cc34)c2C1 [Compound 1, 1-(3-(difluoromethyl)-2-(2-methylthiazol-5-yl)quinolin-5-yl)-N-methyl-3-(tetrahydro-2H-pyran-4-yl)-5,6-dihydroimidazo[1,5-a]pyrazine-7(8H)-carboxamide]
IC50 [3]: 0.029 µM

IC50 [1]: 0.002 µM
IC50 [2]: 1.93 µM
Structure (SMILES): CC(=O)N1CCn2c(C3CCOCC3)nc(-c3cccc4nc(-c5cnc(C)s5)c(C(F)F)cc34)c2C1 [Compound 2]
IC50 [3]: 0.215 µM

IC50 [1]: 0.017 µM
IC50 [2]: 7.43 µM
Structure (SMILES): CC(=O)N1CCn2c(C3CCOCC3)nc(-c3cccc4nc(-c5ccc(C)nc5)c(C(F)F)cc34)c2C1 [Compound 3, 1-(1-(3-(Difluoromethyl)-2-(6-methylpyridin-3-yl)quinolin-5-yl)-3-(tetrahydro-2H-pyran-4-yl)-5,6-dihydroimidazo[1,5-a]pyrazin-7(8H)-yl)ethan-1-one]
IC50 [3]: 0.198 µM

half-life at 1 μM [4]: 86.7 h
half-life at 1 μM [5]: 8.45 h
half-life at 1 μM [6]: 4.35 h
half-life ([9]; mouse, plasma): 0.318 h
clearance [9, 13]: 2.01 L/h/kg
Vd ([9]; mouse, plasma): 0.822 L/kg
Structure (SMILES): CNC(=O)N1CCn2c(C3CCOCC3)nc(-c3cccc4cc(-c5cnc(C)s5)ncc34)c2C1 [Compound 4, reference compound]
IC50 [3]: 0.134 µM
